In patent publication US8710043B2, “TRPM8 antagonists and their use in treatments” (Amgen Inc., priority 2011, dated 2014):
pIC50: −log10 of the molar value.

target: T1, human TRPM8 (Homo sapiens, UniProt Q7Z2W7); assay: Luminescence readout assay for measuring intracellular calcium, icilin activation; type: cell-based; conditions: CHO cells expressing human TRPM8, aequorin luminescence, 1 μM icilin activation; read-out: hTRPM8 IC50
T1 construct: expressed in transfected cells; host or cells: Chinese hamster ovary (CHO) cells, T-REx tetracycline-inducible system, co-transfected with aequorin
T1 sequence (Q7Z2W7 whole entry): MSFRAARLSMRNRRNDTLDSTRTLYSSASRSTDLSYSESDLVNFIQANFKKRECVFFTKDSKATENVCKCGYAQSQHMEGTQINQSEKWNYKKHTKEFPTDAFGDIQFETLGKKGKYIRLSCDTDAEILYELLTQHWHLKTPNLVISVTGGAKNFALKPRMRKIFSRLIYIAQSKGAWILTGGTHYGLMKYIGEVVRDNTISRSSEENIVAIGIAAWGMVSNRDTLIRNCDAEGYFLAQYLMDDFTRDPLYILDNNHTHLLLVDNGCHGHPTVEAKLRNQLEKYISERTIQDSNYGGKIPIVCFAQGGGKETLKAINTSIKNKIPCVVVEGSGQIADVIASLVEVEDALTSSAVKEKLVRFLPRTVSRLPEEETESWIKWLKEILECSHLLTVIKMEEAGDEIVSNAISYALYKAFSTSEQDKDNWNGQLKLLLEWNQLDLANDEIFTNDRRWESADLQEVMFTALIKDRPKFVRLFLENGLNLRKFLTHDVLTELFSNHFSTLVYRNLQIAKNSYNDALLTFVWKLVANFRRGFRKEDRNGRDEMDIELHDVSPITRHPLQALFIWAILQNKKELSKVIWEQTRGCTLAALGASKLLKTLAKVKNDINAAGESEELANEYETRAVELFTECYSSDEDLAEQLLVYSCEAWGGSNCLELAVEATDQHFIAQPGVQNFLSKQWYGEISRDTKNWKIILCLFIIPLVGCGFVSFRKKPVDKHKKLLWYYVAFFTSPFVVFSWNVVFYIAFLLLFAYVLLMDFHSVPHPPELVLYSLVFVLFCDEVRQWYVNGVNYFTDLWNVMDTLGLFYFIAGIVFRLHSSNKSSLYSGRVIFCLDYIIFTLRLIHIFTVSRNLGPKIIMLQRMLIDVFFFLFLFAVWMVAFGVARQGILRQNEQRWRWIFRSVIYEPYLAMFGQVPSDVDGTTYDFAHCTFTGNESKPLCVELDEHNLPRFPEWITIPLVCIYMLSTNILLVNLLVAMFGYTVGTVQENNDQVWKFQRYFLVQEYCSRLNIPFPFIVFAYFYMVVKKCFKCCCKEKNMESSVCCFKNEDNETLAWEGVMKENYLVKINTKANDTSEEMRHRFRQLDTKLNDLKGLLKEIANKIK
How it was run: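 The read-out was luminescence reporting intracellular calcium, recorded by a CCD-based luminometer. Compounds were preincubated for 2.5 min before agonist challenge with 1 μM icilin. Human TRPM8 was expressed in a stable T-REx CHO line, induced with 0.5 μg/mL tetracycline the day before.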

Compound	pIC50
Cc1cc(C)n2nc(C(=O)N[C@@H](c3ccc(C(F)(F)F)cc3)c3ncccc3C(F)(F)F)cc2n1 [Example 149, (S)-5,7-dimethyl-N-((4-(trifluoromethyl)phenyl)(3-(trifluoromethyl)pyridin-2-yl)methyl)pyrazolo[1,5-a]pyrimidine-2-carboxamide]	6.40
Cc1cc(C)n2nc(C(=O)N[C@@H](c3ccc(C(F)(F)F)cc3)c3ncccc3C(F)(F)F)nc2n1 [Example 151, (S)-5,7-dimethyl-N-((4-(trifluoromethyl)phenyl)(3-(trifluoromethyl)pyridin-2-yl)methyl)-[1,2,4]triazolo[1,5-a]pyrimidine-2-carboxamide 2,2,2-trifluoroacetate]	6.40
O=C(N[C@@H](c1ccc(C(F)(F)F)cc1)c1ncccc1C(F)(F)F)C1CCOCC1 [Example 152, (S)-N-((4-(trifluoromethyl)phenyl)(3-(trifluoromethyl)pyridin-2-yl)methyl)tetrahydro-2H-pyran-4-carboxamide]	6.34
O=C(CN1CCOC1=O)N[C@@H](c1ccc(C(F)(F)F)cc1)c1ncccc1C(F)(F)F [Example 154, (S)-2-(2-oxooxazolidin-3-yl)-N-((4-(trifluoromethyl)phenyl)(3-(trifluoromethyl)pyridin-2-yl)methyl)acetamide]	5.60
O=C(CCc1c[nH]cn1)N[C@@H](c1ccc(C(F)(F)F)cc1)c1ncccc1C(F)(F)F [Example 155, (S)-3-(1H-imidazol-4-yl)-N-((4-(trifluoromethyl)phenyl)(3-(trifluoromethyl)pyridin-2-yl)methyl)propanamide 2,2,2-trifluoroacetate]	5.84
O=C(CC1CCOC1)N[C@@H](c1ccc(C(F)(F)F)cc1)c1ncccc1C(F)(F)F (stereo partly drawn) [Example 157, 2-(THF-3-yl)-N-((S)-(4-(trifluoromethyl)phenyl)(3-(trifluoromethyl)pyridin-2-yl)methyl)acetamide]	6.15
O=C(Cc1c[nH]cn1)N[C@@H](c1ccc(C(F)(F)F)cc1)c1ncccc1C(F)(F)F [Example 158, (S)-2-(1H-imidazol-4-yl)-N-((4-(trifluoromethyl)phenyl)(3-(trifluoromethyl)pyridin-2-yl)methyl)acetamide]	5.71
Nc1n[nH]c(C(=O)N[C@@H](c2ccc(C(F)(F)F)cc2)c2ncccc2C(F)(F)F)n1 [Example 159, (S)-3-amino-N-((4-(trifluoromethyl)phenyl)(3-(trifluoromethyl)pyridin-2-yl)methyl)-1H-1,2,4-triazole-5-carboxamide]	5.66
Cc1nccn1CC(=O)N[C@@H](c1ccc(C(F)(F)F)cc1)c1ncccc1C(F)(F)F [Example 160, (S)-2-(2-methyl-1H-imidazol-1-yl)-N-((4-(trifluoromethyl)phenyl)(3-(trifluoromethyl)pyridin-2-yl)methyl)acetamide]	5.48
O=C(Cn1ccnc1)N[C@@H](c1ccc(C(F)(F)F)cc1)c1ncccc1C(F)(F)F [Example 161, (S)-2-(1H-imidazol-1-yl)-N-((4-(trifluoromethyl)phenyl)(3-(trifluoromethyl)pyridin-2-yl)methyl)acetamide 2,2,2-trifluoroacetate]	5.47

The next compounds have a higher pIC50 than those just listed; values first:

pIC50	Compound
7.18	Nc1cnccc1C(=O)N[C@@H](c1ccc(C(F)(F)F)cc1)c1ncccc1C(F)(F)F [Example 139, (S)-3-amino-N-((4-(trifluoromethyl)phenyl)(3-(trifluoromethyl)pyridin-2-yl)methyl)isonicotinamide]
7.28	COC(=O)c1ccc(C(=O)N[C@@H](c2ccc(C(F)(F)F)cc2)c2ncccc2C(F)(F)F)cc1 [Example 140, (S)-methyl 4-(((4-(trifluoromethyl)phenyl)(3-(trifluoro-methyl)pyridin-2-yl)methyl)carbamoyl)benzoate]
6.80	O=C(N[C@@H](c1ccc(C(F)(F)F)cc1)c1ncccc1C(F)(F)F)c1ccc(-c2nnn[nH]2)cc1 [Example 141, (S)-4-(1H-tetrazol-5-yl)-N-((4-(trifluoromethyl)phenyl)(3-(trifluoromethyl)pyridin-2-yl)methyl)benzamide]
6.84	CC(C)(C)OC(=O)N1CCCC(C(=O)N[C@@H](c2ccc(C(F)(F)F)cc2)c2ncccc2C(F)(F)F)C1 (stereo partly drawn) [Example 142, tert-butyl 3-(((S)-(4-(trifluoromethyl)phenyl)(3-(trifluoromethyl)pyridin-2-yl)methyl)carbamoyl)piperidine-1-carboxylate]
7.06	O=C(N[C@@H](c1ccc(C(F)(F)F)cc1)c1ncccc1C(F)(F)F)c1cn[nH]c1 [Example 143, (S)-N-((4-(trifluoromethyl)phenyl)(3-(trifluoromethyl)pyridin-2-yl)methyl)-1H-pyrazole-4-carboxamide]
6.70	Nc1cccnc1C(=O)N[C@@H](c1ccc(C(F)(F)F)cc1)c1ncccc1C(F)(F)F [Example 144, (S)-3-amino-N-((4-(trifluoromethyl)phenyl)(3-(trifluoromethyl)pyridin-2-yl)methyl)picolinamide]
7.07	Cc1ncsc1CCC(=O)N[C@@H](c1ccc(C(F)(F)F)cc1)c1ncccc1C(F)(F)F [Example 145, (S)-3-(4-methylthiazol-5-yl)-N-((4-(trifluoromethyl)phenyl)(3-(trifluoromethyl)pyridin-2-yl)methyl)propanamide]
6.74	Cn1ccnc1C(=O)N[C@@H](c1ccc(C(F)(F)F)cc1)c1ncccc1C(F)(F)F [Example 146, (S)-1-methyl-N-((4-(trifluoromethyl)phenyl)(3-(trifluoromethyl)pyridin-2-yl)methyl)-1H-imidazole-2-carboxamide]
6.83	O=C(N[C@@H](c1ccc(C(F)(F)F)cc1)c1ncccc1C(F)(F)F)c1cncnc1 [Example 147, (S)-N-((4-(trifluoromethyl)phenyl)(3-(trifluoromethyl)pyridin-2-yl)methyl)pyrimidine-5-carboxamide]
6.59	CC(=O)Nc1ccc(C(=O)N[C@@H](c2ccc(C(F)(F)F)cc2)c2ncccc2C(F)(F)F)cn1 [Example 148, (S)-6-acetamido-N-((4-(trifluoromethyl)phenyl)(3-(trifluoromethyl)pyridin-2-yl)methyl)nicotinamide 2,2,2-trifluoroacetate]
6.75	O=C(N[C@@H](c1ccc(C(F)(F)F)cc1)c1ncccc1C(F)(F)F)c1ccc(=O)[nH]n1 [Example 150, (S)-6-oxo-N-((4-(trifluoromethyl)phenyl)(3-(trifluoromethyl)pyridin-2-yl)methyl)-1,6-dihydropyridazine-3-carboxamide]
6.43	Cc1ccnn1CC(=O)N[C@@H](c1ccc(C(F)(F)F)cc1)c1ncccc1C(F)(F)F [Example 153, (S)-2-(5-methyl-1H-pyrazol-1-yl)-N-((4-(trifluoromethyl)phenyl)(3-(trifluoromethyl)pyridin-2-yl)methyl)acetamide]
6.52	CC(C)Cc1cc(C(=O)N[C@@H](c2ccc(C(F)(F)F)c(F)c2)c2ncccc2C(F)(F)F)c2ccccc2n1 [Example 156, (S)-N-((3-fluoro-4-(trifluoromethyl)phenyl)(3-(trifluoromethyl)pyridin-2-yl)methyl)-2-isobutylquinoline-4-carboxamide bis (2,2,2-trifluoroacetate)]
